Source: publication PMC8154566, “Scaffold-Hopping Strategy on a Series of Proteasome Inhibitors Led to a Preclinical Candidate for the Treatment of Visceral Leishmaniasis” (Journal of Medicinal Chemistry, 2021)
In brackets after ≈: the same amount, converted by molar mass. Read-outs that look alike come from different tables or passages of the source. Marks after values point to notes of the source that are not given here.

Columns and labels:
[1] = Kinetic aqueous solubility by CLND; type: physicochemical
Protocol: We had successfully used these criteria in the hit to lead stage to identify compounds for in vivo proof-of-concept studies in another program, which subsequently led to the identification of preclinical candidate DDD853651/GSK3186899 active against CRK12.[7] […] A pharmacokinetic (PK) study was thus performed, dosed at 10 mg/kg po and 3 mg/kg iv. […] With the limited knowledge of the PK/PD drivers for the treatment of VL, we considered this to be a suitable profile for the progression of 4 into a previously reported mouse efficacy model of VL,[6],[7],[17],[18] where it was dosed twice daily at 50 mg/kg ip in order to further maximize exposure and give the best chance of achieving proof-of-concept.
(§1) Intramacrophage L. donovani Assay. This assay was conducted as previously described, except for compound exposure time, which was 96 h instead of 72 h.4
(§2) Intrinsic Clearance. This assay was conducted as previously described.5 Aqueous Solubility. This assay was conducted as previously described.6
(§3) FaSSIF Solublity. This assay was conducted as previously described.5,7
(§4) In vivo Mouse Efficacy Studies. In vivo studies were carried out as previously described, with minor modifications.7 Briefly: Control drug used was Miltefosine (30 mg/kg orally, twice daily for 5 days), vehicle used was 10% (v/v) dimethyl sulfoxide (DMSO), 40% polyethylene glycol 400, and 50% deionized water (10 Ml/kg orally, twice daily for 5 days) and mice were treated with test compound intraperitoneally (50 mg/kg twice daily for 5 days). 5
(§5) All regulated procedures on living animals were carried out under the authority of a project license issued by the Home Office under the Animals (Scientific Procedures) Act 1986, as amended in 2012 (and in compliance with EU Directive EU/2010/63). Infected animals had access to food and water ad libitum and were housed under a 12 hour light/dark photoperiod. Animals used in these experiments were female NMRI and Balb/c mice (Harlan, UK).
(§6) Test compound DDD01008714 was dosed orally (P.O.) at 10 mg free base/kg (dose volume 10 mL/kg; dose vehicle: 10% (vol/vol) dimethyl sulfoxide (DMSO), 40% polyethylene glycol 400 (PEG400) and 50% deionized water) to female NMRI mice (n = 3) or intravenously (I.V.) at 3 mg free base/kg (dose volume 5 mL/kg; dose vehicle: 10% (vol/vol) dimethyl sulfoxide (DMSO) and 90% Saline) to female Balb/c mice (n = 3). Blood samples (10 μL) where taken from the tail vein of […]

LCK = LCK (Homo sapiens, UniProt P06239); assay: Kinase screen LCK; type: biochemical
PI3Kγ = PI3Kγ (Homo sapiens, UniProt P48736); assay: Kinase screen PI3Kγ; type: biochemical
AuroraB = AuroraB (Homo sapiens, UniProt Q96GD4); assay: Kinase screen AuroraB; type: biochemical
L. donovani amastigotes [2] = settings: cited from earlier work
THP-1 cells [3] = settings: cited from earlier work
[4] = design: method as in PMID 30962368; settings: cited from earlier work
[5] = design: method as in PMID 30962368; settings: dosed in rats at 300 mg/kg; cited from earlier work
[6] = Table 6; mouse liver microsomes; cited from earlier work
L. donovani amastigotes [7] = assay: INMAC assay: intramacrophage L. donovani in differentiated THP-1 cells; type: cell-based, Leishmania donovani; settings: for EC50 / IC50: Leishmania donovani; for EC50: THP-1, at least three replicates, SD ≤0.4; for loss of potency: INMAC, relative to compound 4; for IC50: THP-1, read-out: LdInMac pIC50 (converted)
Protocol: (§7) Intramacrophage L. donovani Assay. This assay was conducted as previously described, except for […]

THP-1 cells [8] = assay: THP-1 host cell read-out of the INMAC assay; type: cell-based; settings: Homo sapiens, THP-1; for IC50: supplementary csv, read-out: THP1 pIC50 (converted)
Protocol: as §7

[9] = FaSSIF (fasted state simulated intestinal fluid) solubility; type: physicochemical
Protocol: as §1, §2, §3, §4, §5, §6

[10] = Mouse liver microsomal intrinsic clearance; type: in vitro ADME; settings: for Mouse CLi: mouse liver microsomes; for Cli (mouse, ml/min/g): supplementary csv
Protocol: as §1, §2, §3, §4, §5, §6

[11] = Table 6, kinetic, CLND, read-out: Aq. solubility
[12] = supplementary csv, flagged as reported previously in the main tables
[13] = Table 6, read-out: INMAC pEC50 (converted)
[14] = Table 6, read-out: THP-1 pEC50 (converted)
[15] = supplementary csv, read-out: Aqueous Solubility
[16] = Table 2, read-out: INMAC (pEC50) (converted)
[17] = Table 2, read-out: THP-1 (pEC50) (converted)
[18] = Table 2, kinetic, CLND, read-out: Aq. solubility

Chain of AuroraB (Q96GD4 whole entry): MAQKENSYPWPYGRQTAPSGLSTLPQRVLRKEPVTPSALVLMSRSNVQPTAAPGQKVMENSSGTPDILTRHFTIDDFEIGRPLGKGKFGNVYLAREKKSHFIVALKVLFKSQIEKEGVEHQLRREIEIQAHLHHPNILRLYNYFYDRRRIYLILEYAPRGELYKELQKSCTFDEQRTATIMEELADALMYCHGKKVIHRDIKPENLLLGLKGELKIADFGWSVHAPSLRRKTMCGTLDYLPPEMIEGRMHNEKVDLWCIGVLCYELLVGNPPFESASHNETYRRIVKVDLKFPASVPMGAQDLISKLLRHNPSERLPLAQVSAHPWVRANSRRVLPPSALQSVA
Chain of LCK (P06239 whole entry): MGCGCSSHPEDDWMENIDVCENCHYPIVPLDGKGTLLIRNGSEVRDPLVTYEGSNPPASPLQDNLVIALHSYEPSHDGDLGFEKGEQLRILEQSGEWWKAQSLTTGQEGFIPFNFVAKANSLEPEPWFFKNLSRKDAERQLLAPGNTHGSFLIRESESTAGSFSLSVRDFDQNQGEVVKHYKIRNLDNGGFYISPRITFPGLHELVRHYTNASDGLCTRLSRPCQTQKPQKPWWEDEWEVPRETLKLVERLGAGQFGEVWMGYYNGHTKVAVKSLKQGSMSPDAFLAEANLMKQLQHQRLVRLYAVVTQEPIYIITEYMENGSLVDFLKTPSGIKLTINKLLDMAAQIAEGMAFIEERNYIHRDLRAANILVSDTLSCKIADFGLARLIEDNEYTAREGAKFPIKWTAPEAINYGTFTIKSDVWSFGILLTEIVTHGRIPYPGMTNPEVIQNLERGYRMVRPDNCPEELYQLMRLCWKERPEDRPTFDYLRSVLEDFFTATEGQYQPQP
Chain of PI3Kγ (P48736 whole entry): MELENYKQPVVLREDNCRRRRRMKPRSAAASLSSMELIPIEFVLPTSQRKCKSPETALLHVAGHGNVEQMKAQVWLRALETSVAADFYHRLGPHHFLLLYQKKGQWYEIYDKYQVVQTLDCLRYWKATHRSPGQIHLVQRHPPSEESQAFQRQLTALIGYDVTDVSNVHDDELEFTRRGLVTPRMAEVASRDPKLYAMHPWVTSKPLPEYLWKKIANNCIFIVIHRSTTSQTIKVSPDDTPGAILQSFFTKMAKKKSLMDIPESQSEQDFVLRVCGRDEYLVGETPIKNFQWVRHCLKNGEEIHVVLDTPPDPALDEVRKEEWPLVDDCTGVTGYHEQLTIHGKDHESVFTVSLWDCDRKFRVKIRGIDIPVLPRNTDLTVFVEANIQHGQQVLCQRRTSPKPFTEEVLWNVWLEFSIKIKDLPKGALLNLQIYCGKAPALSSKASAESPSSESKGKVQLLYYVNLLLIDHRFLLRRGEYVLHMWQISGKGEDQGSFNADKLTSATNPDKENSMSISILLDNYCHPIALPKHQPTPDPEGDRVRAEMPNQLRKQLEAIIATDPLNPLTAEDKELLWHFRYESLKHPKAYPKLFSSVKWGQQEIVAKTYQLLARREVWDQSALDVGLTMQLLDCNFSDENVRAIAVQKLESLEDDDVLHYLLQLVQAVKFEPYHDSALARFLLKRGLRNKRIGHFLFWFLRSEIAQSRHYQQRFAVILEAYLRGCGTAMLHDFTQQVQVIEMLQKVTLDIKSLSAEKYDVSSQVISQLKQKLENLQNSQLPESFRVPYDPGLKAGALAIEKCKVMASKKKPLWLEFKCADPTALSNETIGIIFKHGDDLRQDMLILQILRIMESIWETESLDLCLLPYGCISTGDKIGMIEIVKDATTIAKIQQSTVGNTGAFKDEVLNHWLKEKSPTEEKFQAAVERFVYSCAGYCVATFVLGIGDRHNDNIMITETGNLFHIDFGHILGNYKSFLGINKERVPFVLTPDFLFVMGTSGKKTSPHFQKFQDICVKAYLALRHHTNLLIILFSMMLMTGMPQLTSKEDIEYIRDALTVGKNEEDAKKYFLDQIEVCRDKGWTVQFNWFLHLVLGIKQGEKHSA

SMILES	solubility [1, 11] [µM]	IC50 (THP-1 cells [8]) [µM]	solubility ([9]; supplementary csv) [µM]	Cli (mouse, ml/min/g) [10] [mL/min/g]	solubility [1, 15] [µM]	loss of potency (L. donovani amastigotes [7]) [fold]	IC50 (L. donovani amastigotes [7]) [µM]	EC50 (L. donovani amastigotes [7]; [16]) [µM]	EC50 (THP-1 cells [8]; [17]) [µM]	solubility [1, 18] [µM]	Mouse CLi ([10]; Table 2) [mL/min/g]	solubility ([9]; Table 2) [µM]	solubility at 4 h ([9]; pH 6.5, Table 2) [µM]	other results
O=C(Nc1ccc(F)c(-c2ccn3c(N4CCOCC4)cnc3n2)c1)N1CCCC1 [Compound 1]	420 (≈ 172 µg/mL)													pIC50 LCK (LCK): < 4.5; pIC50 PI3Kγ (PI3Kγ): < 4.5; pIC50 AuroraB (AuroraB): < 4.5; INMAC pEC50 (L. donovani amastigotes [2]; Table 5): 5.8; LdInMac pIC50 (L. donovani amastigotes [2]; [12]): 5.8; THP-1 pEC50 (THP-1 cells [3]; Table 5): <4.3; THP1 pIC50 (THP-1 cells [3]; [12]): <4.3; Ames assay result [4]: negative; predicted safety margin [5]: at least 37 fold; Mouse CLi [6]: 0.8^e mL/min/g
O=C(Nc1cccc(-c2nc3ncccc3o2)c1)c1ccco1 [Compound 3]														INMAC pEC50 (L. donovani amastigotes [2]; Table 3): 5.2; THP-1 pEC50 (THP-1 cells [3]; Table 3): <4.3
O=C(Nc1ccc(F)c(-c2ccn3c(CN4CCOCC4)cnc3n2)c1)N1CCCC1 [Compound 32, N-(4-Fluoro-3-(3-(morpholinomethyl)imidazo[1,2-a]pyrimidin-7-yl)phenyl)pyrrolidine-1-carboxamide]	≥ 348	63.1	730 (≈ 310 µg/mL)	16										EC50 (L. donovani amastigotes [7]; [13]): 10 µM; EC50 (THP-1 cells [8]; [14]): 63.1 µM; solubility at 4 h ([9]; pH 6.5, Table 6): 728 µM (≈ 309 µg/mL); Mouse CLi ([10]; Table 6): 16 mL/min/g
O=C(Nc1ccc(F)c(-c2ccn3c(N4CCCCC4)cnc3n2)c1)N1CCCC1 [Compound 34, N-(4-Fluoro-3-(3-(piperidin-1-yl)imidazo[1,2-a]pyrimidin-7-yl)phenyl)pyrrolidine-1-carboxamide]	358 (≈ 146 µg/mL)	50.1		8.4	360 (≈ 147 µg/mL)									EC50 (L. donovani amastigotes [7]; [13]): 0.501 µM; EC50 (THP-1 cells [8]; [14]): 50.1 µM; solubility at 4 h ([9]; pH 6.5, Table 6): 32 µM (≈ 13.1 µg/mL); Mouse CLi ([10]; Table 6): 8.4 mL/min/g
O=C(Nc1nccc(-c2cn3cc(N4CCOCC4)cnc3n2)n1)N1CCCC1 [Compound 12, N-(4-(6-Morpholinoimidazo[1,2-a]pyrimidin-2-yl)pyrimidin-2-yl)pyrrolidine-1-carboxamide]		> 50.1	> 1000	<0.5		> 10	> 50.1	> 50.1	> 50.1	≥ 470	<0.5			
O=C(Nc1cc(-c2cn3cc(N4CCOCC4)cnc3n2)ncn1)N1CCCC1 [Compound 10, N-(6-(6-Morpholinoimidazo[1,2-a]pyrimidin-2-yl)pyrimidin-4-yl)pyrrolidine-1-carboxamide]		> 50.1	> 1000	<0.5	≥ 440	> 10	> 50.1	> 50.1	> 50.1	≥ 435	<0.5	> 100	2050 (≈ 807 µg/mL)	
O=C(Nc1cncc(-c2cn3cc(N4CCOCC4)cnc3n2)n1)N1CCCC1 [Compound 11, N-(6-(6-Morpholinoimidazo[1,2-a]pyrimidin-2-yl)pyrazin-2-yl)pyrrolidine-1-carboxamide]		> 50.1	210 (≈ 82.8 µg/mL)	<0.5	≥ 400	> 10	> 50.1	> 50.1	> 50.1	≥ 396	<0.5	> 100	213 (≈ 84 µg/mL)	
CC(C)Nc1cnc2nc(-c3cc(NC(=O)N4CCCC4)ccc3F)ccn12 [Compound 45, N-(4-Fluoro-3-(3-(isopropylamino)imidazo[1,2-a]pyrimidin-7-yl)phenyl)pyrrolidine-1-carboxamide]	124 (≈ 47.4 µg/mL)	50.1		5.2	120 (≈ 45.9 µg/mL)									EC50 (L. donovani amastigotes [7]; [13]): 2.51 µM; EC50 (THP-1 cells [8]; [14]): 50.1 µM; solubility at 4 h ([9]; pH 6.5, Table 6): 13 µM (≈ 4.97 µg/mL); Mouse CLi ([10]; Table 6): 5.2 mL/min/g
O=C(Nc1cc(-c2cn3cc(N4CCOCC4)cnc3n2)ccc1F)N1CCCC1 [Compound 5, N-(2-Fluoro-5-(6-morpholinoimidazo[1,2-a]pyrimidin-2-yl)phenyl)pyrrolidine-1-carboxamide]		> 50.1		0.9	260 (≈ 107 µg/mL)	> 10		15.8	> 50.1	256 (≈ 105 µg/mL)	0.9		51 (≈ 20.9 µg/mL)	
COc1ccc(-c2cn3cc(N4CCOCC4)cnc3n2)cc1NC(=O)N1CCCC1 [Compound 8, N-(2-Methoxy-5-(6-morpholinoimidazo[1,2-a]pyrimidin-2-yl)phenyl)pyrrolidine-1-carboxamide]		> 50.1	270 (≈ 114 µg/mL)	1.4		> 10		20	> 50.1	≥ 380	1.4	> 100	265 (≈ 112 µg/mL)	
O=C(Nc1cnnc(-c2cn3cc(N4CCOCC4)cnc3n2)c1)N1CCCC1 [Compound 13, N-(6-(6-Morpholinoimidazo[1,2-a]pyrimidin-2-yl)pyridazin-4-yl)pyrrolidine-1-carboxamide]		> 50.1	290 (≈ 114 µg/mL)	<0.5	360 (≈ 142 µg/mL)	> 10	> 50.1	> 50.1	> 50.1	355 (≈ 140 µg/mL)	<0.5	> 100	286 (≈ 113 µg/mL)	
